Read-outs that look alike come from different tables or passages of the source.
Key:
adenosine A1 receptor = biological target: T1, adenosine A1 receptor (Rattus norvegicus, UniProt P25099); assay: Adenosine Receptor Binding - A1 Receptor Affinity (RBA1), [3H]-N6-cyclohexyladenosine displacement; conditions: [3H]-CHA 1.0 nM, rat brain membranes, 25° C., one hour; read-out: RBA-1, IC50 for adenosine A1 receptor affinity
T1 construct: Whole brain minus cerebellum and brainstem from male Long Evans rats; from tissue; host or cells: whole brain minus cerebellum and brainstem, male Long Evans rats (membranes)
T1 sequence (P25099 1-326): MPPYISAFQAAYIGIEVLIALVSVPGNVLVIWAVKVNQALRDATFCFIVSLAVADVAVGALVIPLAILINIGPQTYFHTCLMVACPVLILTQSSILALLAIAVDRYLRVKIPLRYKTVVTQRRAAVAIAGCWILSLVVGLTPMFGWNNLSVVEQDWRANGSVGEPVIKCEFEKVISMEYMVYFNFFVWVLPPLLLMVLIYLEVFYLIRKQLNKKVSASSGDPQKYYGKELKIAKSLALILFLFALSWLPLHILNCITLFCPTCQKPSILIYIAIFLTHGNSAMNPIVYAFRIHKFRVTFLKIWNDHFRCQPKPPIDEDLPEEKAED
Protocol: Whole brain minus cerebellum and brainstem from male Long Evans rats (150-200 g) was homogenized in 30 volumes of ice-cold 0.05M Tris-HCl buffer pH 7.7 using a Brinkman Polytron PT-10, (setting number 6 for 20 seconds) and centrifuged for ten minutes at 20,000×g (Sorvall RC-2), 4° C. The supernatant was discarded, and the pellet was resuspended and centrifuged as before. […] The homogenate was again centrifuged, and the final pellet was resuspended in ice-cold 0.05 M Tris-HCl buffer pH 7.7 to a concentration of 20 mg/ml original wet tissue weight and used immediately. […] Incubation volume was 2 ml. […] The filters were rinsed three times with 5 ml of ice cold 0.05 M Tris-HCl buffer pH 7.7. The radio-labeled ligand retained on the filter was measured by liquid scintillation spectrophotometry after shaking the filters for one hour or longer on a mechanical shaker in 10 ml of Beckman Ready-Solv HP scintillation cocktail. […] The Hill coefficient was calculated by linear regression of the line obtained by plotting the log of the bound radioligand vs the log of the [formula] The maximal number of binding sites (Bmax) was calculated from the Scatchard plot.

Type 1 Phosphodiesterase = assay: Phosphodiesterase (PDE) Inhibition, Type 1 Phosphodiesterase; format: biochemical, bovine (coronary arteries); conditions: Type 1 PDE, at 10^-5 M; for % Inhibition of hydrolysis of 3H-cAMP: substrate 3H-cAMP 1.0 μM; for % Inhibition of hydrolysis of 3H-cGMP: substrate 3H-cGMP 1.0 μM
Excerpt: (§1) The method of Thompson, et al (Thompson, W. J., Terasaki, W. L., Epstein, P. M., Strada, S. J., Adv. Cyclic Nucleotide Res., 10:69-92, 1979), with minor modifications, was used to isolate phosphodiesterases from vascular smooth muscle. Bovine coronary arteries (right, anterior descending, and left circumflex arteries) from hearts obtained from a local slaughterhouse were used for these studies. Arteries from two hearts were used for each isolation. Hearts were kept on ice and the arteries were dissected within two hours after the animals were sacrificed. After removing all fat and connective tissue, the arteries were everted, cut into cubes with a single edge razor blade and homogenized with a Brinkman Polytron three times at a rheostat setting of 10.0 in four volumes of the PDE isolation buffer (10 mM Tris-HCl/pH 7.5, 2 mM MgCl2, and 1 mM dithiothreitol). The resulting homogenate was sonicated (30 sec/ml homogenate) and then centrifuged at 30,000 xg for 20 minutes. This and all subsequent procedures were performed at 4° C. The resulting supernatant was filtered through four layers of gauze, and applied to a DEAE-cellulose column (30×1.5 cm), prepared as described by Cheung (Cheung, W. Y., Biochim. Biophys. Acta, 191:303-315, 1969), and equilibrated with freshly prepared 70 mM sodium acetate/5 mM 2-mercaptoethanol (pH 6.5). The column was then washed with 2-3 bed volumes of sodium acetate/2-mercaptoethanol, after which the phosphodiesterases were eluted from the column using a continuous 70-1,000 mM sodium acetate gradient (pH 6.5, containing 5 mM 2-mercaptoethanol; total volume 400 ml). The flow rate was approximately equal to 25 ml/hr. Eight ml fractions were collected and assayed for cyclic AMP- and cyclic GMP-phosphodiesterase activity in the presence and absence of 0.1 units of calmodulin and 10 mM CaCl2. Appropriate fractions were pooled and dialyzed against 70 mM sodium acetate/5 mM 2-mercaptoethanol for 20 hours.
(§2) Following complete separation, the combined phosphodiesterase fractions were concentrated to 14% of the original volume using an Amicon ultrafiltration cell fitted with a UM-10 membrane, according to the method of Wells, et al (Wells, J. N., Baird, C. E., Wu, Y. J., Hardman, J. G., Biochim. Biophys. Acta, 384:430-442, 1975). Following concentration, the protein was then diluted to 65% with ethylene glycol monoethyl ether, and stored at -20° C.
(§3) Phosphodiesterase activity was measured as described previously (Weishaar, P. E., Quade, M., Boyd, D., Schenden, J., Mark, S. S., Kaplan, H. R., Drug Devel. Res., 3:517-534, 1983), in a reaction medium containing 40 mM Tris-HCl (pH 8.0), 5 mM MgCl and 4 mM 2-mercaptoethanol. Unless otherwise noted, the concentration of substrate (^3 H-cyclic AMP or ^3 H-cyclic GMP) was 1.0 μM. All agents examined were dissolved in dimethyl sulfoxide (DMSO). Final concentration of the reaction medium was either 2.5% (cardiac and platelet studies) or 1.25% (smooth muscle studies). This concentration of DMSO produced an approximately 10% inhibition of enzyme activity.

Type 3 Phosphodiesterase = assay: Phosphodiesterase (PDE) Inhibition, Type 3 Phosphodiesterase; format: biochemical, bovine (coronary arteries); conditions: Type 3 PDE, at 10^-5 M, substrate 3H-cAMP 1.0 μM
Excerpt: as §1, §2, §3

[1] = test system: pentobarbital-anesthetized dog; assay: In Vivo Myocardial Inotropic Activity in Anesthetized Dog (CVAD); parameters: species or system dog (adult mongrel); conditions: for change in vivo at 0.1 mg/kg / change in vivo at 0.3 mg/kg / change in vivo at 1 mg/kg / change in vivo at 3.1 mg/kg / change in vivo at 10 mg/kg / change in vivo at 0.31 mg/kg: Canis lupus familiaris, iv; for change in vivo at 0.3 mg/kg: 0.30 mg/kg IV; for change in vivo at 10 mg/kg: 10.00 mg/kg IV
Protocol: This test procedure is described in the following paragraphs.
This screen consists of determining the effects of increasing intravenous doses of compound on mycardial contractility (dP/dt max of left ventricular blood pressure), heart rate, and aortic blood pressure of the pentobarbital-anesthetized dog.
Adult mongrel dogs of either sex are anesthetized with pentobarbital, 35 mg/kg, IV, and are subsequently maintained under anesthesia with a continuous infusion of pentobarbital, 3.5 mg/kg/hour. The trachea is intubated but the animals are permitted to breathe spontaneously. A cannula is inserted into the femoral vein for administrating test agents. A Millar catheter tip pressure transducer or a fluid filled catheter is inserted into the ascending aorta via the femoral artery for measuring aortic blood pressure. A Millar catheter tip pressure transducer is passed into the left ventricle via the left carotid artery for measuring left ventricular blood pressure. Needle electrodes are placed subcutaneously for recording a lead II electrocardiogram (ECG).
Left ventricular and aortic blood pressures are recorded on a strip chart recorder. Heart rate, using a biotachometer triggered from the R wave of the ECG, and the first derivative of left ventricular blood pressure (dP/dt), obtained with a differentiator amplifier coupled to the corresponding pressure amplifier, are also recorded. A period of at least 30 minutes is utilized to obtain control data prior to administration of test compound.
Ethanol or dimethylacetamide can be used as solvents if adequate dilutions can be made. Appropriate vehicle controls are administered when needed.
Each dose of the test compound is administered in a volume of […] over a period of one minute.

[2] = 0.10 mg/kg IV, read-out: Percent Change Blood Pressure
[3] = 0.10 mg/kg IV, read-out: Percent Change Heart Rate
[4] = 0.10 mg/kg IV, read-out: Percent Change Myocardial Contractility
[5] = read-out: Percent Change Blood Pressure
[6] = read-out: Percent Change Heart Rate
[7] = read-out: Percent Change Myocardial Contractility
[8] = 1.00 mg/kg IV, read-out: Percent Change Blood Pressure
[9] = 1.00 mg/kg IV, read-out: Percent Change Heart Rate
[10] = 1.00 mg/kg IV, read-out: Percent Change Myocardial Contractility
[11] = 3.10 mg/kg IV, read-out: Percent Change Blood Pressure
[12] = 3.10 mg/kg IV, read-out: Percent Change Heart Rate
[13] = 3.10 mg/kg IV, read-out: Percent Change Myocardial Contractility
[14] = 0.31 mg/kg IV, read-out: Percent Change Heart Rate
[15] = 0.31 mg/kg IV, read-out: Percent Change Myocardial Contractility

Compound | IC50 (adenosine A1 receptor) [nM] | % Inhibition of hydrolysis of 3H-cAMP (Type 1 Phosphodiesterase) [%] | % Inhibition of hydrolysis of 3H-cGMP (Type 1 Phosphodiesterase) [%] | % Inhibition of hydrolysis of 3H-cAMP (Type 3 Phosphodiesterase) [%] | change in vivo at 0.1 mg/kg [1, 2] [%] | change in vivo at 0.1 mg/kg [1, 3] [%] | change in vivo at 0.1 mg/kg [1, 4] [%] | change in vivo at 0.3 mg/kg [1, 5] [%] | change in vivo at 0.3 mg/kg [1, 6] [%] | change in vivo at 0.3 mg/kg [1, 7] [%] | change in vivo at 1 mg/kg [1, 8] [%] | change in vivo at 1 mg/kg [1, 9] [%] | change in vivo at 1 mg/kg [1, 10] [%] | change in vivo at 3.1 mg/kg [1, 11] [%] | change in vivo at 3.1 mg/kg [1, 12] [%] | change in vivo at 3.1 mg/kg [1, 13] [%] | change in vivo at 10 mg/kg [1, 7] [%] | change in vivo at 0.31 mg/kg [1, 14] [%] | change in vivo at 0.31 mg/kg [1, 15] [%] | Percent Change Blood Pressure ([1]; 0.10 mg/kg IV) | further results
Cc1nn(C)c2c(=O)[nH]c(-c3ccc([N+](=O)[O-])cc3)nc12 [Example 9, 1,3-Dimethyl-5-(4-nitrophenyl)pyrazolo[4,3-d]pyrimidine-7-one] | 880 | 16 | 6 | 1 | – | 1 | 4 | – | – | – | – | -3 | 4 | – | 1 | 2 | – | 0 | 5 | – | –
Cc1nn(C)c2c(=O)[nH]c(-c3cccc(N)c3)nc12 [Example 12, 1,3-Dimethyl-5-(3-aminophenyl)pyrazolo[4,3-d]pyrimidine-7-one] | 1540 | 6 | 9 | 33 | – | -8 | -1 | – | – | – | – | -8 | -12 | – | – | – | – | -10 | -19 | – | –
Cc1nn(C)c2c(=O)[nH]c(-c3cccc([N+](=O)[O-])c3)nc12 [Example 13, 1,3-Dimethyl-5-(3-nitrophenyl)pyrazolo[4,3-d]pyrimidine-7-one] | 1200 | 30 | 18 | 50 | -2 | 2 | 6 | -4 | 4 | 5 | -7 | -3 | -7 | -12 | -3 | 6 | 101 | – | – | – | –
Cc1nn(C)c2c(=O)[nH]c(-c3ccc(Cl)c(Cl)c3)nc12 [Example 15, 1,3-Dimethyl-5-(3,4-dichlorophenyl)pyrazolol[4,3-d]-pyrimidine-7one] | 887 | 5 | 3 | 0 | – | 7 | 8 | – | – | – | – | 9 | 13 | – | 12 | 13 | – | 7 | 10 | 1/2 | Percent Change Blood Pressure ([1]; 3.10 mg/kg IV): 1/2

Further lines, with some results ahead:

IC50 (adenosine A1 receptor) [nM] | % Inhibition of hydrolysis of 3H-cAMP (Type 1 Phosphodiesterase) [%] | % Inhibition of hydrolysis of 3H-cGMP (Type 1 Phosphodiesterase) [%] | % Inhibition of hydrolysis of 3H-cAMP (Type 3 Phosphodiesterase) [%] | Compound | change in vivo at 0.1 mg/kg [1, 2] [%] | change in vivo at 0.1 mg/kg [1, 3] [%] | change in vivo at 0.1 mg/kg [1, 4] [%] | change in vivo at 0.3 mg/kg [1, 5] [%] | change in vivo at 0.3 mg/kg [1, 6] [%] | change in vivo at 0.3 mg/kg [1, 7] [%] | change in vivo at 1 mg/kg [1, 8] [%] | change in vivo at 1 mg/kg [1, 9] [%] | change in vivo at 1 mg/kg [1, 10] [%] | change in vivo at 3.1 mg/kg [1, 11] [%] | change in vivo at 3.1 mg/kg [1, 12] [%] | change in vivo at 3.1 mg/kg [1, 13] [%] | change in vivo at 10 mg/kg [1, 7] [%] | change in vivo at 0.31 mg/kg [1, 14] [%] | change in vivo at 0.31 mg/kg [1, 15] [%] | Percent Change Blood Pressure ([1]; 0.10 mg/kg IV) | further results
417 | 14 | 15 | 15 | Cc1ccc(-c2nc3c(C)nn(C)c3c(=O)[nH]2)cc1 [Example 8, 1,3-Dimethyl-5-(4-methylphenyl)pyrazolo[4,3-d]pyrimidine-7-one] | -1 | 5 | 7 | 0 | 5 | 10 | 3 | 6 | 20 | 3 | 10 | 22 | 82 | – | – | – | –
385 | 19 | 15 | 32 | Cc1nn(C)c2c(=O)[nH]c(-c3ccc(N)cc3)nc12 [Example 11, 1,3-Dimethyl-5-(4-aminophenyl)pyrazolo[4,3-d]pyrimidine-7-one] | – | 1 | 9 | – | – | – | – | 5 | 25 | – | 15 | 66 | – | 3 | 17 | 1/1 | Percent Change Blood Pressure ([1]; 0.31 mg/kg IV): 5/3; Percent Change Blood Pressure ([1]; 1.00 mg/kg IV): 1/0

Source: patent publication US4666908A, “5-Substituted pyrazolo[4,3-d]pyrimidine-7-ones and methods of use” (Warner-Lambert Company, priority 1985, dated 1987)
